“Also recorded” adds a separate entry of the source. Read-outs that look alike come from different tables or passages of the source.
How the values were obtained:
[1] = biological target: T1, T. cruzi malic enzyme (TcME) (Trypanosoma cruzi, UniProt Q4DJ68); parameters: method as in Mercaldi et al. (2021); conditions: TcME (cytosolic isoform); ref Mercaldi et al. (2021); cited from earlier work
[2] = tested on: T. cruzi Dm28c strain intracellular form infecting H9c2 rat cardiomyoblasts; conditions: cited from earlier work
H9c2 rat cardiomyoblasts = tested on: H9c2 rat cardiomyoblasts; parameters: method as in Mercaldi et al. (2021) and Peña et al. (2015); conditions: total host cells; ref Mercaldi et al. (2021) and Peña et al. (2015); cited from earlier work
[3] = biological target: T1, T. cruzi malic enzyme (TcME); assay: Malic enzyme (TcME) inhibition assay, diaphorase/resazurin coupled; format: biochemical
Experimental: The TcME inhibition assay was performed as previously described, with minor modifications ([Mercaldi et al., 2021]). Briefly, a coupled assay with the enzyme diaphorase and resorufin fluorescence (Ex 545 nm/Em 600 nm) was recorded every 30 s for 6 min in a CLARIOstar plate reader (BMG LabTech). The final concentrations of reagents in the assay were: 0.02 mM NADP+, 0.4 mM L-aspartate, 0.45 nM TcMEc, 1 U/mL diaphorase, and 10 μM resazurin, all in 50 mM Tris-HCl buffer containing 50 mM NaCl and 2 mM MnCl2 at pH 7.5. The reaction was initiated by adding 1.32 mM L-malate.

[4] = tested on: T. cruzi Dm28c strain intracellular form infecting H9c2 rat cardiomyoblasts; assay: T. cruzi intracellular image-based assay; format: cell-based, Trypanosoma cruzi
Experimental: (§1) Tested compounds were dissolved and serially diluted in dimethylsulfoxide (DMSO) using a half-log dilution across six concentrations. Intermediate plates were prepared by diluting compounds 1:25 in DMEM (Dulbecco’s Modified Eagle Medium) with 10% FBS (Fetal Bovine Serum). The assay was based on [Fredo Naciuk et al. (2020)], with minor modifications. Briefly, T. cruzi trypomastigotes (from LLC-MK2 cultures, 6 days post-infection) were used to infect H9c2 rat cardiomyoblasts overnight (16–18 h) at MOI 1. After washing with PBS, cells were trypsinized and resuspended in DMEM at 2.3 × 10^4 cells/mL. Then, 65 μL per well was plated in 384-well plates and incubated for 24 h (37 °C, 5% CO2, >95% humidity). Subsequently, 7.5 μL of compound solution was added (final [DMSO] 0.4%). After 72 h of treatment, cells were fixed with 4% PFA and stained with Hoechst 33342 (4 μg/mL). Six images per well were acquired using the Operetta system (PerkinElmer) and analyzed with Columbus software to quantify infected cells (≥3 cytoplasmic parasite spots).

[5] = Host cell cytotoxicity in the image-based assay (total host cells); conditions: rat, H9c2 rat cardiomyoblasts (infected with T. cruzi), 72 h treatment
Experimental: as §1

[6] = Chemical stability at physiological pHs; format: physicochemical; conditions: basic pH, 37 °C, 24 h
Experimental: These conditions simulate stomach acidity, plasma neutrality, and intestinal basicity.
For the chemical stability experiment, the compounds were evaluated under the same conditions with an additional incubation at 37 °C for a period of 24 h. The analysis was performed using an analytical method developed and validated by high-performance liquid chromatography with UV detection (HPLC-UV). Compounds were quantified in different pH media by comparing the areas where the substances were completely soluble with those in the reaction media. The experiments were performed in a triplicate.
These conditions simulate stomach acidity, plasma neutrality, and intestinal basicity. […] For the chemical stability experiment, the compounds were evaluated under the same conditions with an additional incubation at 37°C for a period of 24 hours. The analysis was performed using an analytical method developed and validated by high-performance liquid chromatography with UV detection (HPLC-UV). Compounds were quantified in the different pH media by comparing the areas where the substances were completely soluble with those in the reaction media. The experiments were performed in triplicate.

T1 sequence (Q4DJ68 entry or part of it): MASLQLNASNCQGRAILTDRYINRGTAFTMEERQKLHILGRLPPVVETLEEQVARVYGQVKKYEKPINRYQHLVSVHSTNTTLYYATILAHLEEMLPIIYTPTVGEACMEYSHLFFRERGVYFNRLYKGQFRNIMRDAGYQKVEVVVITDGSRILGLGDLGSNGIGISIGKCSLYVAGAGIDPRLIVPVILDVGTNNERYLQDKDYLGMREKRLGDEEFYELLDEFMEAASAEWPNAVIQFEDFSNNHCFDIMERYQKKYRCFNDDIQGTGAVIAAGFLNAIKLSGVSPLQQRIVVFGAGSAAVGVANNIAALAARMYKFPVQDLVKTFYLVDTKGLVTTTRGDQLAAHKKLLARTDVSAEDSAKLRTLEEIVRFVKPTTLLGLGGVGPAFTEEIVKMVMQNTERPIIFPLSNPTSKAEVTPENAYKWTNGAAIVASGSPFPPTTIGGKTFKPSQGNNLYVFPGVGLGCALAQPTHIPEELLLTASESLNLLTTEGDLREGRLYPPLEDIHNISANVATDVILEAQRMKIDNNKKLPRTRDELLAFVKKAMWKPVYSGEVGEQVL

Row | Compound | activity against TcME (in words) [3] | activity against T. cruzi intracellular forms (in words) [4] | also measured
1 | COc1ccc(NS(=O)(=O)c2cccc(NC(=O)c3cc(F)cc(F)c3)c2)cc1 [TCMDC-143108] |  |  | IC50 [1]: 80 nM; SI ([2]; Selectivity index, ref Mercaldi et al. (2021) and Peña et al. (2015)): > 84; EC50 ([2]; host cells infected by T. cruzi amastigotes, ref Peña et al. (2015)): 500 nM; CC50 (H9c2 rat cardiomyoblasts): > 42000 nM
2 | CC(C)Oc1ccc(NS(=O)(=O)c2cccc(NC(=O)c3cc(F)cc(F)c3)c2)cc1 [AC-M109, 3,5-difluoro-N-(3-(N-(4-isopropoxyphenyl)sulfamoyl)phenyl)benzamide] |  |  | IC50 ([3]; concentration necessary to inhibit 50% of T. cruzi Malic enzyme enzymatic activity): 860 nM; CC50 at 72 h [5]: 12000 nM; SI ([4]; Selectivity index): 318; Chemical stability [6]: ≤ 40%
3 | COc1ccc(NS(=O)(=O)c2ccc(NC(=O)c3cc(F)cc(F)c3)cc2)cc1 [AC-R001, 3,5-difluoro-N-(4-(N-(4-methoxyphenyl)sulfamoyl)phenyl)benzamide] | not active | Inactive; also recorded: didn´t affect the parasite | 
4 | COc1ccc(NS(=O)(=O)c2ccc(NC(=O)c3cnccn3)cc2)cc1 [AC-R009, N-(4-(N-(4-methoxyphenyl)sulfamoyl)phenyl)pyrazine-2-carboxamide] | not active | Inactive; also recorded: didn´t affect the parasite | 

More lines, main results first:

Row | activity against TcME (in words) [3] | Compound | activity against T. cruzi intracellular forms (in words) [4] | also measured
5 | not active | CC(C)Oc1ccc(NS(=O)(=O)c2ccc(NC(=O)c3cnccn3)cc2)cc1 [AC-R010, N-(4-(N-(4-isopropoxyphenyl)sulfamoyl)phenyl)pyrazine-2-carboxamide] | Inactive; also recorded: didn´t affect the parasite | 
6 | not active | CC(C)Oc1ccc(NS(=O)(=O)c2cccc([N+](=O)[O-])c2)cc1 [compound 6, N-(4-isopropoxyphenyl)-3-nitrobenzenesulfonamide] | not active | 
7 | not active | CC(C)Oc1ccc(NS(=O)(=O)c2cccc(N)c2)cc1 [compound 10, 3-amino-N-(4-isopropoxyphenyl)benzenesulfonamide] | not active | 
8 | not active | COc1ccc(NS(=O)(=O)c2cccc(N)c2)cc1 [compound 9, 3-amino-N-(4-methoxyphenyl)benzenesulfonamide] | not active | 
9 | not active | COc1ccc(NS(=O)(=O)c2cccc([N+](=O)[O-])c2)cc1 [compound 5, N-(4-methoxyphenyl)-3-nitrobenzenesulfonamide] | not active | 
